The results in this text go back to patent publication US10010547B2 (CASCADIAN THERAPEUTICS, INC., priority 2014, dated 2018).

In one experiment the test system is MIA PaCa-2 cells. Kind of experiment: Gemcitabine Combination Cell Assay (Cell Titer Glo). It counts as cell-based. The settings on record: for 10xLS: approximate concentration of Chk1 inhibitor that results in a 10-fold reduction in the IC50 of gemcitabine alone; for 2xLS: approximate concentration of Chk1 inhibitor that results in a two-fold reduction in the IC50 of gemcitabine alone. A digest of the protocol:
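MIA PaCa-2 cells were treated 72 h with half-log dilutions of Chk1 inhibitor (top 3000 nM) and gemcitabine (top 100 nM), alone and in full matrix; viability by CellTiter-Glo luminescence. IC50s from four-parameter fit; Chk1 inhibitor concentrations giving two- and ten-fold lowering of gemcitabine IC50 were estimated.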
On the technique in general: Cellular ATP, detected with luciferase, serves as a proxy for viable cell number.

The next experiment addresses Chk-1 kinase (Homo sapiens (Human), UniProt O14757). Put plainly: Chk-1 Kinase Inhibiting Activity (33P-ATP filter assay, CHKtide substrate). It counts as biochemical. The settings on record: against Chk-1 kinase; read-out: IC50. An outline of the steps: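 Full-length N-terminal GST-tagged human Chk-1 from insect cells, 0.5 nM final, with 20 μM peptide substrate and 33P-ATP in HEPES pH 7.5 buffer with 1% DMSO. Reaction ran 120 minutes at room temperature; incorporated radioactivity captured on P81 filters and counted for IC50.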

Setting [1] is: Homo sapiens, MIA PaCa-2, 72 h, read-out: Chk1 IC50 (nM).
Setting [2] is: Homo sapiens, Chk1 inhibitor alone, MIA PaCa-2 cells, 72 h, read-out: Chk1 IC50.
[3] abbreviates: Chk1 inhibitor alone, MIA PaCa-2 cells, 72 h, read-out: Chk1 IC50.

Where a name gives a salt, the structure may show the parent alone. Read-outs that look alike come from different tables or passages of the source.

Chk-1 kinase, sequence (O14757 whole entry): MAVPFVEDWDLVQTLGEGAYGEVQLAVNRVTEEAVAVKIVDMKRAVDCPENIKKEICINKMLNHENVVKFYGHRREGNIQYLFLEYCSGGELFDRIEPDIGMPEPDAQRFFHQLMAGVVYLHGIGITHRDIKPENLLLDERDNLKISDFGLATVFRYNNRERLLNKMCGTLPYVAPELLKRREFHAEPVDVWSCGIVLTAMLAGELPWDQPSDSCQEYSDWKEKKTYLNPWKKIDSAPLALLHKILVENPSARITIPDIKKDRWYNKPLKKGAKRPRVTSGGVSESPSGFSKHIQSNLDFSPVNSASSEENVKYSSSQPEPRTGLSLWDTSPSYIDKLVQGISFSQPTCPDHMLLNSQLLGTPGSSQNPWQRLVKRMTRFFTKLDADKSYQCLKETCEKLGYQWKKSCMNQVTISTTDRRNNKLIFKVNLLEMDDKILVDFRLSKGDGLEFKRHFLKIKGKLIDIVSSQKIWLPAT

Take `COc1cc(CNC2CCOCC2)ccc1-c1cc(Nc2cnc(C#N)cn2)n[nH]1` [Example 14, 5-[[5-[2-Methoxy-4-[(tetrahydropyran-4-ylamino)methyl]phenyl]-1H-pyrazol-3-yl]amino]pyrazine-2-carbonitrile hydrochloride]: the IC50 (usually the concentration that gives 50% inhibition) in the experiment with MIA PaCa-2 cells (setting [1]) stood at 894 nM; at Chk-1 kinase, 0.026 nM. Moreover, the “10xLS” value in the experiment with MIA PaCa-2 cells (MIA PaCa-2 cells, 72 h) is reported as roughly 50 nM. The “2xLS” value with MIA PaCa-2 cells (MIA PaCa-2 cells, 72 h) is recorded as less than 3 nM.

For the molecule `CCN1CCC(F)(c2ccc(-c3cc(Nc4cnc(C#N)cn4)n[nH]3)c(OC)c2)CC1` [Example 85, 5-[[5-[4-(1-ethyl-4-fluoro-4-piperidyl)-2-methoxy-phenyl]-1H-pyrazol-3-yl]amino]pyrazine-2-carbonitrile], the values for the IC50 with MIA PaCa-2 cells (setting [2]) and at Chk-1 kinase were 138 nM and 0.25 nM, respectively. Further, in the experiment with MIA PaCa-2 cells (MIA PaCa-2 cells, 72 h), the “10xLS” value is 100 nM. In addition, the “2xLS” value in the experiment with MIA PaCa-2 cells (MIA PaCa-2 cells, 72 h) was found to be 3 nM.

Take `CCN1CCN(c2ccc(-c3cc(Nc4cnc(C#N)cn4)n[nH]3)c(OC)c2)CC1` [Example 80, 5-[[5-[4-(4-ethylpiperazin-1-yl)-2-methoxy-phenyl]-1H-pyrazol-3-yl]amino]pyrazine-2-carbonitrile]: the IC50 with MIA PaCa-2 cells (setting [2]) worked out at 36 nM. Moreover, in the experiment on MIA PaCa-2 cells (MIA PaCa-2 cells, 72 h), the “10xLS” value is 10 nM and the “2xLS” value is on record as less than 3 nM. At Chk-1 kinase, the IC50 stood at 0.19 nM.

Regarding `COc1cc(CNCC2CC2)ccc1-c1cc(Nc2cnc(C#N)cn2)n[nH]1` [Example 130, 5-[[5-[4-[(cyclopropylmethylamino)methyl]-2-methoxy-phenyl]-1H-pyrazol-3-yl]amino]pyrazine-2-carbonitrile], the IC50 with MIA PaCa-2 cells (setting [2]) worked out at 142 nM; on Chk-1 kinase, 0.025 nM. Besides, the “10xLS” value in the experiment with MIA PaCa-2 cells (MIA PaCa-2 cells, 72 h) is less than 100 nM. Also, the “2xLS” value in the experiment with MIA PaCa-2 cells (MIA PaCa-2 cells, 72 h) turned out to be 3 nM.

As for `COc1cc(CNCC2CCN(C(=O)C3CC3)CC2)ccc1-c1cc(Nc2cnc(C#N)cn2)n[nH]1` [Example 12, 5-[5-(4-{[(1-cyclopropane-carbonyl-piperidin-4-ylmethyl)-amino]-methyl}-2-methoxy-phenyl)-1 H-pyrazol-3-ylamino]-pyrazine-2-carbonitrile], the IC50 with MIA PaCa-2 cells (setting [2]) turned out to be 264 nM. For the same molecule, in the experiment with MIA PaCa-2 cells (MIA PaCa-2 cells, 72 h), the “10xLS” value is recorded as roughly 50 nM and the “2xLS” value was less than 3 nM. In addition, on Chk-1 kinase, the IC50 is 0.034 nM.

For the molecule `COc1cc(CNC2CCOC2)ccc1-c1cc(Nc2cnc(C#N)cn2)n[nH]1` (centres unmarked) [Example 72, 5-[[5-[2-methoxy-4-[(tetrahydrofuran-3-ylamino)methyl]phenyl]-1H-pyrazol-3-yl]amino]pyrazine-2-carbonitrile], the IC50 in the experiment on MIA PaCa-2 cells (setting [2]) turned out to be 173 nM. Also, in the experiment on MIA PaCa-2 cells (MIA PaCa-2 cells, 72 h), the “10xLS” value came to 100 nM and the “2xLS” value is recorded as 10 nM. The IC50 at Chk-1 kinase worked out at 0.16 nM.

With `CCN1CC[C@H](OCc2ccc(-c3cc(Nc4cnc(C#N)cn4)n[nH]3)c(OC)c2)C1` [Example 138, 5-[[5-[4-[[(3S)-1-ethylpyrrolidin-3-yl]oxymethyl]-2-methoxy-phenyl]-1H-pyrazol-3-yl]amino]pyrazine-2-carbonitrile], the IC50 in the experiment on MIA PaCa-2 cells (setting [2]) came out at 836 nM. Moreover, in the experiment with MIA PaCa-2 cells (MIA PaCa-2 cells, 72 h), the “10xLS” value came out at 300 nM and the “2xLS” value is on record as less than 10 nM. Moreover, the IC50 on Chk-1 kinase was 0.041 nM.

For `CCN1CCC(OCc2ccc(-c3cc(Nc4cnc(C#N)cn4)n[nH]3)c(OC)c2)CC1` [Example 114, 5-[[5-[4-[(1-ethyl-4-piperidyl)oxymethyl]-2-methoxy-phenyl]-1H-pyrazol-3-yl]amino]pyrazine-2-carbonitrile], the IC50 in the experiment with MIA PaCa-2 cells (setting [3]) was 469 nM. In the experiment on MIA PaCa-2 cells (MIA PaCa-2 cells, 72 h), the “10xLS” value was less than 300 nM and the “2xLS” value is 3 nM. The IC50 on Chk-1 kinase is 0.2 nM.

As for `COc1cc(COC2CCN(C(C)C)CC2)ccc1-c1cc(Nc2cnc(C#N)cn2)n[nH]1` [Example 115, 5-[[5-[4-[(1-isopropyl-4-piperidyl)oxymethyl]-2-methoxy-phenyl]-1H-pyrazol-3-yl]amino]pyrazine-2-carbonitrile], the values for the IC50 with MIA PaCa-2 cells (setting [3]) and on Chk-1 kinase were 515 nM and 0.24 nM, respectively. The “10xLS” value in the experiment on MIA PaCa-2 cells (MIA PaCa-2 cells, 72 h) is less than 300 nM. In the experiment on MIA PaCa-2 cells (MIA PaCa-2 cells, 72 h), the “2xLS” value was determined as 3 nM.

For `COc1cc(OCC2CCN(C)CC2)ccc1-c1cc(Nc2cnc(C#N)cn2)n[nH]1` [Example 29, 5-[[5-[2-methoxy-4-[(1-methyl-4-piperidyl)methoxy]phenyl]-1H-pyrazol-3-yl]amino]pyrazine-2-carbonitrile], the IC50 with MIA PaCa-2 cells (setting [2]) came to 176 nM. Further, in the experiment with MIA PaCa-2 cells (MIA PaCa-2 cells, 72 h), the “10xLS” value turned out to be 100 nM and the “2xLS” value is given as 3 nM. Also, at Chk-1 kinase, the IC50 was 0.068 nM.

In the case of `COc1cc(N2CCN(C)CC2)ccc1-c1cc(Nc2cnc(C#N)cn2)n[nH]1` [Example 22, 5-[[5-[2-methoxy-4-(4-methylpiperazin-1-yl)phenyl]-1H-pyrazol-3-yl]amino]pyrazine-2-carbonitrile hydrochloride], the IC50 in the experiment with MIA PaCa-2 cells (setting [1]) was determined as 88 nM. In the experiment with MIA PaCa-2 cells (MIA PaCa-2 cells, 72 h), the “10xLS” value is listed as less than 30 nM and the “2xLS” value is recorded as less than 3 nM. Further, the IC50 on Chk-1 kinase was found to be 0.026 nM.
